pIC50: −log10 of the molar value.
Experiments:
Assay type in all cases: cell-based
Details in all cases: 72 h; human CD4+ T cells under TH17-polarizing conditions, 3 days; supernatant ELISA
[1] = test system: IL-17A; test: Human TH17 cytokine inhibition as measured by ELISA (IL-17A)
Experimental: (§1) Human TH17 Cytokine Inhibition as Measured by ELISA Peripheral blood mononuclear cells (PBMCs) were sourced from freshly prepared leukocyte enriched plasma (buffy coat) from healthy donors (New York Blood Center). PBMCs were isolated by density gradient centrifugation using Ficoll-Paque™ PLUS (GE Healthcare). Human CD4+ T cells were seeded into 96-well plates (5×10^4 cells/well) and activated with plate-bound anti-human (h)-CD3 antibody and soluble h-aCD28 (both at 1 ug/ml; eBioscience) and differentiated into TH17 cells with 20 ng/mL h-IL-6, 5 ng/mL h-TGF-β1, 10 ng/mL h-IL-23 (eBioscience) and 10 ng/mL IL-1β (Miltenyi Biotec) in serum-free TexMACS Medium (Miltenyi Biotec) supplemented with 1% Penicillin/Streptomycin (Lonza) for 3 days. CD4+ T cells propagated under TH17-polarizing conditions were cultured in the presence or absence of various concentrations of compounds with a final concentration of 0.1% DMSO. Supernatants were collected and stored at −20° C. until assayed for IL-17A, IL-17F and IL-21 levels by “Ready-Set-Go” ELISA kits (eBioscience) as per manufacturer's instructions. Endpoint absorbance was read at 450 nm using a microplate reader (Perkin Elmer).

[2] = test system: IL-17F; test: Human TH17 cytokine inhibition as measured by ELISA (IL-17F)
Experimental: as §1

[3] = test system: IL-21; test: Human TH17 cytokine inhibition as measured by ELISA (IL-21)
Experimental: as §1

Measured: pIC50

O=C(C1CCCCC1)N1C2CCC1C(Cn1ccc3cc(-c4cn[nH]c4)ccc31)C2 (stereo not drawn) [Example 12, (2-((5-(1H-pyrazol-4-yl)-1H-indol-1-yl)methyl)-7-azabicyclo[2.2.1]heptan-7-yl)(cyclohexyl)methanone]
> 5.00: all assays above

O=C(c1ccccc1)N1C2CCC1C(CN1CCc3cc(-c4cn[nH]c4)ccc31)C2 (stereo not drawn) [Example 9, (2-((5-(1H-pyrazol-4-yl)-1H-indolin-1-yl)methyl)-7-azabicyclo[2.2.1]heptan-7-yl)(phenyl)methanone]
> 5.00: all assays above

O=C(Cc1ccccc1)N1C2CCC1C(Cn1ccc3cc(-c4cn[nH]c4)ccc31)C2 (stereo not drawn) [Example 10, 1-(2-((5-(1H-pyrazol-4-yl)-1H-indol-1-yl)methyl)-7-azabicyclo[2.2.1]heptan-7-yl)-2-phenylethanone]
> 5.00: all assays above

O=C(CCc1ccccc1)N1C2CCC1C(Cn1ccc3cc(-c4cn[nH]c4)ccc31)C2 (stereo not drawn) [Example 11, 1-(2-((5-(1H-pyrazol-4-yl)-1H-indol-1-yl)methyl)-7-azabicyclo[2.2.1]heptan-7-yl)-3-phenylpropan-1-one]
> 5.00: all assays above

CC(C)C(=O)N1C2CCC1C(Cn1ccc3cc(-c4cn[nH]c4)ccc31)C2 (stereo not drawn) [Example 15, 1-(2-((5-(1H-pyrazol-4-yl)-1H-indol-1-yl)methyl)-7-azabicyclo[2.2.1]heptan-7-yl)-2-methylpropan-1-one]
> 5.00: all assays above

CC(C)CC(=O)N1C2CCC1C(Cn1ccc3cc(-c4cn[nH]c4)ccc31)C2 (stereo not drawn) [Example 14, 1-(2-((5-(1H-pyrazol-4-yl)-1H-indol-1-yl)methyl)-7-azabicyclo[2.2.1]heptan-7-yl)-3-methylbutan-1-one]
> 5.00: all assays above

O=C(CC1CCCCC1)N1C2CCC1C(Cn1ccc3cc(-c4cn[nH]c4)ccc31)C2 (stereo not drawn) [Example 13]
> 5.00: all assays above

Source: patent US20150252051A1, “RETINOIC ACID RECEPTOR-RELATED ORPHAN RECEPTOR MODULATORS AND USES THEREOF” (INNOV17 LLC, priority 2014, published 2015)
